Data reported in patent US20090325202A1, “Methods for Developing and Assessing Therapeutic Agents” (priority 2006, published 2009).

Assays:
[1] = tested on: p70S6K; experiment: IHC staining of phospho-p70S6K in resected xenograft tumor tissue; type: in vivo, human
Method: At the completion of the treatment course, xenografted tissues were harvested and fixed in formalin for 24 hrs. The fixed tissues were paraffin-embedded and cut in 0.5 micron sections onto positively-charged glass slides for immunohistochemical (IHC) labeling. Analysis was performed to determine the IHC pharmacodynamic effects of the drug in the targeted pathway. For IHC staining, slides were deparaffinized and rehydrated in graded concentrations of alcohol by standard techniques before antigen retrieval in citrate buffer pH 6.0 for 20 minutes. Next, the slides were cooled for 20 minutes before washing in 1× TBST (Dako Corp. Carpinteria, Calif.). All staining was performed using a DAKO Autostainer at room temperature. Slides were incubated in 3% H2O2 for 10 minutes, followed by the appropriate dilution of primary antibody for 60 minutes. Tris-HCl (0.2M, pH 7.5) (Quality Biological, Inc, Gaithersburg, Md.) was used as the antibody diluent solution. Dilutions of antibodies used were as follows: Total ERK1/2 (Cell Signaling Technology, Beverly, Mass.) 1:25, p-ERK1/2 (Thr202/Tyr204) (Cell Signaling Technology, Beverly, Mass.) 1:50, p70S6K (Santa Cruz Biotechnology) 1:50, and pp70S6K (Cell Signaling Technology, Beverly, Mass.) 1:50. […]

[2] = tested on: S6 ribosomal protein; experiment: In vivo tumor FNAB Western blot, S6 ribosomal protein phosphorylation (Example 5); conditions: tumor samples of treated animals compared to control
Method: Fine needle aspiration yielded up to 200 μg of total protein as determined using the BCA protein assay (Pierce) and bovine serum albumin as a standard. Protein extracts (15 μg) were added to a loading buffer boiled and electrophoresed on a 7 or 10% (w/v) polyacrylamide gel in the presence of SDS. Molecular weights of the immunoreactive proteins were estimated based upon the relative migration with colored molecular weight protein markers (Amersham Pharmacia Biotech). After electrotransfer to Immobilon-P membranes (Millipore), membranes were blocked at room temperature using SuperBlock (Pierce,#37516) for one hour. The primary antibodies were diluted at 1:1000 in 1:10 dilution of SuperBlock solution and the membranes were incubated with primary antibodies overnight at 4° C. Next day, the membranes were washed and incubated for 1 h at room temperature with horseradish peroxidase (HRP)-conjugated secondary antibodies, rabbit IgG-HRP (SC-2004), or mouse IgG-HRP (SC-2005) from Santa Cruz Biotechnology at a final dilution of 1:3000. After washing three times with Tris-buffered saline antibody binding was visualized using enhanced chemiluminescence (SuperSignal West Pico, Pierce) and autoradiography.
The expression levels and the phosphorylation status of EGFR, ERK1/2 and S6 ribosomal protein were determined on Western blot analysis.

With `CO[C@H]1C[C@@H]2CC[C@@H](C)[C@@](O)(O2)C(=O)C(=O)N2CCCC[C@H]2C(=O)O[C@H]([C@H](C)C[C@@H]2CC[C@@H](OC(=O)C(C)(CO)CO)[C@H](OC)C2)CC(=O)[C@H](C)/C=C(\C)[C@@H](O)[C@@H](OC)C(=O)[C@H](C)C[C@H](C)/C=C/C=C/C=C/1C` [temsirolimus, Temsirolimus] the “IHC staining for phosphorylated p70S6K” value ([1]; tumor A194, in vivo treated with temsirolimus) was “no effect”, the “IHC staining for phosphorylated p70S6K” value ([1]; tumor A198, in vivo treated with temsirolimus) was “strongly decreased staining” and the “S6 ribosomal protein phosphorylation in vivo” value [2] was “effectively blocked S6 ribosomal protein phosphorylation”.
